Reference: ChEMBL document CHEMBL5385906, “Discovery of a Potent, Selective, and Orally Bioavailable Tool Compound for Probing the Role of Lysophosphatidic Acid Type 2 Receptor Antagonists in Fibrotic Disorders” (J Med Chem, 2023)

Tests used:
[1] = target: Lysophosphatidic acid receptor 4 (Homo sapiens, UniProt Q99677)
[2] = Protein binding in mouse plasma assessed as fraction unbound at 0.5 uM measured after 5 hrs by LC-MS/MS analysis
[3] = Protein binding in mouse lungs assessed as fraction unbound at 5 uM measured after 5 hrs by LC-MS/MS analysis
[4] = target: T1, Lysophosphatidic acid receptor 3 (Homo sapiens, UniProt Q9UBY5)
T1 sequence (Q9UBY5 whole entry): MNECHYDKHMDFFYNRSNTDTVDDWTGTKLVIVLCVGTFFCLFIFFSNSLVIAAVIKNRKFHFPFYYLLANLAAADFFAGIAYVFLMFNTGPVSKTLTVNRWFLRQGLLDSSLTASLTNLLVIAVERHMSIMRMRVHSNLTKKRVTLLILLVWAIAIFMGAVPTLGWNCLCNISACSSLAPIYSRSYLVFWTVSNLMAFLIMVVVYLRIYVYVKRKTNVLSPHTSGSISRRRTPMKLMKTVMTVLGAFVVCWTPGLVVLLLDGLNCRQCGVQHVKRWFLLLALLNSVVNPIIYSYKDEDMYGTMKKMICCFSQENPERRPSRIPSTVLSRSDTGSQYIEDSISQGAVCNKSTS
Description: Antagonist activity at human LPA3 receptor expressed in HeLa cells assessed as inhibition of LPA-induced calcium mobilization pretreated for 15 mins followed by LPA stimulation by FLIPR analysis

[5] = target: T2, Lysophosphatidic acid receptor 2 (Mus musculus, UniProt Q9JL06); assay: Antagonist activity at mouse LPA2 receptor expressed in HeLa cells assessed as inhibition of LPA-induced calcium mobilization pretreated for 15 mins followed by LPA stimulation by FLIPR analysis; type: functional, cell-based
T2 sequence (Q9JL06 whole entry): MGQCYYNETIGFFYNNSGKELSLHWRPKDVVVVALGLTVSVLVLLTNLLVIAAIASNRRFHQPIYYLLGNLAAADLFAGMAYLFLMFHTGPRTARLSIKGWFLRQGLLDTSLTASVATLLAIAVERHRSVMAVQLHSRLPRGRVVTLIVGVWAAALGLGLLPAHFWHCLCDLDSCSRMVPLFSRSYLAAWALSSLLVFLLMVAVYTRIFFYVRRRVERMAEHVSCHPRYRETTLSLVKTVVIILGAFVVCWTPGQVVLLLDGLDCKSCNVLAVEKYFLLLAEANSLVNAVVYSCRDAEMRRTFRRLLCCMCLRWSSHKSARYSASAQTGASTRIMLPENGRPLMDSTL

[6] = Protein binding in human plasma assessed as fraction unbound at 0.5 uM measured after 5 hrs by LC-MS/MS analysis
[7] = target: Lysophosphatidic acid receptor 2 (Homo sapiens, UniProt Q9HBW0)
Sequence of Lysophosphatidic acid receptor 2 (Homo sapiens, UniProt Q9HBW0) (Q9HBW0 whole entry): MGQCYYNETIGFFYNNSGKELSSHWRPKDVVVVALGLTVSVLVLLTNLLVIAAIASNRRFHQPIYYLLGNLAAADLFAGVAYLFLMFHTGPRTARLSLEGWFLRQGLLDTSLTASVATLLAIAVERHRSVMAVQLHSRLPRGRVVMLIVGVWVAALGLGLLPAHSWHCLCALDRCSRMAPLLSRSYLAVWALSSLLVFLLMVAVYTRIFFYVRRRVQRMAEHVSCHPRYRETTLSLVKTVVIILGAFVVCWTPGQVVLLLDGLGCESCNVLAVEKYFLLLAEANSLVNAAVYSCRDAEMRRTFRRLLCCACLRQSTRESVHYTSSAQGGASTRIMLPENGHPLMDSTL
Description: Antagonist activity at human LPA2 receptor expressed in CHO cells assessed as inhibition of LPA-induced calcium mobilization pretreated for 15 mins followed by LPA stimulation by FLIPR analysis

[8] = in vitro; conditions: C57BL/6J, mouse, liver microsomes
Description: Intrinsic clearance in C57BL/6J mouse liver microsomes at 0.5 uM in presence of NADPH regenerating system measured for 45 mins per mg protein by LC-MS/MS analysis

[9] = Apparent permeability across apical to basolateral side in human Caco-2 cells at 10 uM measured after 60 mins by LC-MS/MS analysis
[10] = Efflux ratio of apparent permeability across apical to basolateral to basolateral to apical side in human Caco-2 cells at 10 uM measured after 60 mins by LC-MS/MS analysis
[11] = target: T2, Lysophosphatidic acid receptor 2
Description: Antagonist activity at LPA2 receptor expressed in C57BL/6 mouse primary alveolar epithelial cells assessed as inhibition of LPA-induced calcium mobilization pretreated for 15 mins followed by LPA stimulation by FLIPR analysis

[12] = target: Lysophosphatidic acid receptor 1 (Homo sapiens, UniProt Q92633)
Sequence of Lysophosphatidic acid receptor 1 (Q92633 whole entry): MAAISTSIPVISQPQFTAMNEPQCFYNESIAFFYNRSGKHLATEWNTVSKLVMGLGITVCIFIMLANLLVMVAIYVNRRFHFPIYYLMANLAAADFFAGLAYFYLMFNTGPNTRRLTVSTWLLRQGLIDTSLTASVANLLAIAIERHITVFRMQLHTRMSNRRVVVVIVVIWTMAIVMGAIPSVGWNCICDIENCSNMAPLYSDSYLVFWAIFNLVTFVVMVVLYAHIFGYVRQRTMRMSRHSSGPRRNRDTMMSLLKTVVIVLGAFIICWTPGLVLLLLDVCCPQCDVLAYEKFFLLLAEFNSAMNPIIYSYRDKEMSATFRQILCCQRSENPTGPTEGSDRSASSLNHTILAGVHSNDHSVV
Description: Antagonist activity at human LPA1 receptor expressed in CHO cells assessed as inhibition of LPA-induced calcium mobilization pretreated for 15 mins followed by LPA stimulation by FLIPR analysis

[13] = target: Lysophosphatidic acid receptor 5 (Homo sapiens, UniProt Q9H1C0)
Sequence of Lysophosphatidic acid receptor 5 (Q9H1C0 whole entry): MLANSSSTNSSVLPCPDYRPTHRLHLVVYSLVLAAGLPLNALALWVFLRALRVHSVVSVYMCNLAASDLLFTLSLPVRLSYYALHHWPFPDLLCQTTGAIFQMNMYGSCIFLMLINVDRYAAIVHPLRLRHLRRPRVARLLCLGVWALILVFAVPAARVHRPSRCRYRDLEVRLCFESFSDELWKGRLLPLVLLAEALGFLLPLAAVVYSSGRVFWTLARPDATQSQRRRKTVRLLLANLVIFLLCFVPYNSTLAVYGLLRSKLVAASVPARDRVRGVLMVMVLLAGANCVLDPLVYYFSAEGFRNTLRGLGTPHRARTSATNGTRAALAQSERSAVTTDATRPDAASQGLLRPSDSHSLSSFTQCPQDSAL
Description: Antagonist activity at human LPA5 receptor expressed in HeLa cells assessed as inhibition of LPA-induced calcium mobilization pretreated for 15 mins followed by LPA stimulation by FLIPR analysis

[14] = in vitro; conditions: human, liver microsomes, CLH
Description: Intrinsic clearance in human liver microsomes at 0.5 uM in presence of NADPH regenerating system measured for 45 mins per mg protein by LC-MS/MS analysis

[15] = Half life in C57BL/6J mouse at 5 mg/kg, po or 4 mg/kg, iv by UPLC-MS/MS analysis; conditions: in vivo
[16] = Apparent permeability across basolateral to apical side in human Caco-2 cells at 10 uM measured after 60 mins by LC-MS/MS analysis
[17] = in vivo; conditions: C57BL/6J, mouse, po, 5 mg/kg
Description: Oral bioavailability in C57BL/6J mouse at 5 mg/kg by UPLC-MS/MS analysis

[18] = in vivo; conditions: C57BL/6J, mouse, lung, po, 30 mg/kg
[19] = in vivo; conditions: C57BL/6J, mouse, po, 30 mg/kg
[20] = in vivo; conditions: C57BL/6J, mouse, plasma, po, 30 mg/kg
[21] = in vivo; conditions: C57BL/6J, mouse, lung, po, 30 mg/kg; remark: listed apart in the source
[22] = Half life in C57BL/6J mouse at 30 mg/kg, po and 2 mg/kg, iv by LC-MS/MS analysis; conditions: in vivo
[23] = in vivo; conditions: C57BL/6J, mouse, plasma, po, 30 mg/kg; remark: listed apart in the source
[24] = Oral absorption in C57BL/6J mouse at 30 mg/kg by LC-MS/MS analysis; conditions: in vivo
[25] = in vivo; conditions: C57BL/6J, mouse, lung and plasma, po, 24.3 mg/kg
Description: Ratio of total AUC in lung to plasma in C57BL/6J mouse at 24.3 mg/kg, po and 1.4 mg/kg, iv by UPLC-MS/MS analysis

[26] = in vivo; conditions: C57BL/6J, mouse, plasma, po, 24.3 mg/kg
Description: Total AUClast in C57BL/6J mouse plasma at 24.3 mg/kg, po and 1.4 mg/kg, iv by UPLC-MS/MS analysis

[27] = in vivo; conditions: C57BL/6J, mouse, plasma, po, 24.3 mg/kg; remark: listed apart in the source
Description: Total Cmax in C57BL/6J mouse plasma at 24.3 mg/kg, po and 1.4 mg/kg, iv by UPLC-MS/MS analysis

[28] = Clearance in C57BL/6J mouse at 1.4 mg/kg, iv by UPLC-MS/MS analysis; conditions: in vivo
[29] = in vivo; conditions: C57BL/6J, mouse, po, 24.3 mg/kg
Description: Half life in C57BL/6J mouse at 24.3 mg/kg, po and 1.4 mg/kg, iv by UPLC-MS/MS analysis

[30] = in vivo; conditions: C57BL/6J, mouse, lungs, po, 24.3 mg/kg
Description: Total Cmax in C57BL/6J mouse lungs at 24.3 mg/kg, po and 1.4 mg/kg, iv by UPLC-MS/MS analysis

[31] = in vivo; conditions: C57BL/6J, mouse, po, 24.3 mg/kg; remark: listed apart in the source
Description: Oral bioavailability in C57BL/6J mouse at 24.3 mg/kg by UPLC-MS/MS analysis

[32] = in vivo; conditions: C57BL/6J, mouse, po, 24.3 mg/kg; remark: listed apart in the source
Description: Oral absorption in C57BL/6J mouse at 24.3 mg/kg by UPLC-MS/MS analysis

[33] = in vivo; conditions: C57BL/6J, mouse, lungs, po, 24.3 mg/kg; remark: listed apart in the source
Description: Total AUClast in C57BL/6J mouse lungs at 24.3 mg/kg, po and 1.4 mg/kg, iv by UPLC-MS/MS analysis

[34] = in vivo; conditions: C57BL/6J, mouse, po, 24.8 mg/kg
Description: Oral availability in C57BL/6J mouse at 24.8 mg/kg by LC-MS/MS analysis

[35] = in vivo; conditions: C57BL/6J, mouse, po, 24.8 mg/kg; remark: listed apart in the source
Description: Half life in C57BL/6J mouse at 24.8 mg/kg, po and 1.8 mg/kg, iv by LC-MS/MS analysis

[36] = in vivo; conditions: C57BL/6J, mouse, po, 24.8 mg/kg; remark: listed apart in the source
Description: Total AUC last in C57BL/6J mouse plasma at 24.8 mg/kg, po and 1.8 mg/kg, iv by LC-MS/MS analysis

[37] = in vivo; conditions: C57BL/6J, mouse, po, 24.8 mg/kg; remark: listed apart in the source
Description: Total Cmax in C57BL/6J mouse plasma at 24.8 mg/kg, po and 1.8 mg/kg, iv by LC-MS/MS analysis

[38] = in vivo; conditions: C57BL/6J, mouse, po, 24.8 mg/kg; remark: listed apart in the source
Description: Oral absorption in C57BL/6J mouse at 24.8 mg/kg by LC-MS/MS analysis

[39] = in vivo; conditions: C57BL/6J, mouse, po, 24.8 mg/kg; remark: listed apart in the source
Description: Total Cmax in C57BL/6J mouse lungs at 24.8 mg/kg, po and 1.8 mg/kg, iv by LC-MS/MS analysis

[40] = in vivo; conditions: C57BL/6J, mouse, po, 24.8 mg/kg; remark: listed apart in the source
Description: Total AUC last in C57BL/6J mouse lungs at 24.8 mg/kg, po and 1.8 mg/kg, iv by LC-MS/MS analysis

Sequence of Lysophosphatidic acid receptor 4 (Q99677 whole entry): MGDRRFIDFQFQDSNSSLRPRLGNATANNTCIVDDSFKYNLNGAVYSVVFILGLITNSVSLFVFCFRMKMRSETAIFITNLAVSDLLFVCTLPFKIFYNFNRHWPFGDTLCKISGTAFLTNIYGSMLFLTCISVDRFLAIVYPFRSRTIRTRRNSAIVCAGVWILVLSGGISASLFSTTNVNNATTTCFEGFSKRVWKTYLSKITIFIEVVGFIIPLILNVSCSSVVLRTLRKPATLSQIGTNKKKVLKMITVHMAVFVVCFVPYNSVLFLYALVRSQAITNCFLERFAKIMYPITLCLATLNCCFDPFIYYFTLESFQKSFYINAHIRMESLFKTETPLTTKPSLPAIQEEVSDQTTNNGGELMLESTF

Row | fraction unbound at 5 h, 0.5 µM [2] | fraction unbound at 5 h, 5 µM [3] | IC50 ([5]; read-out: pIC50 (converted)) [nM] | fraction unbound at 5 h, 0.5 µM [6] | IC50 [7] [nM] | microsomal CLint at 0.75 h, 0.5 µM [8] [µL/min/mg] | Papp A→B at 1 h, 10 µM [9] [×10⁻⁶ cm/s] | efflux ratio at 1 h, 10 µM [10] | IC50 [12] [nM] | microsomal CLint at 0.75 h, 0.5 µM [14] [µL/min/mg] | Papp B→A at 1 h, 10 µM [16] [×10⁻⁶ cm/s] | Cmax [18] [ng/mL] | bioavailability [19] [%] | Cmax [20] [ng/mL] | AUC(0-t) [21] [ng·h/mL] | half-life [22] [h] | AUC(0-t) [23] [ng·h/mL] | Fa [24] [%] | Structure (SMILES) | also measured
1 | 0.0065 | 0.001 | 295 | 0.004 | 676 | > 759 | 0.89 | 1 | 9770 | 758 | 0.91 |  |  |  |  |  |  |  | Cc1csc2c(N[C@@H](C)CN3CCN(S(=O)(=O)c4ccc(Cl)c(Cl)c4)CC3)ncnc12 | IC50 [1]: 6310 nM; IC50 [4]: 38900 nM; IC50 [11]: 324 nM; IC50 [13]: > 50100 nM; half-life [15]: 1 h; bioavailability [17]: 0.23%
2 |  |  | 2.57 |  |  |  |  |  | > 5010 |  |  |  |  |  |  |  |  |  | COC(=O)Nc1nc(C)c(S(=O)(=O)N2CCN(C[C@H](C)Nc3ncnc4c(-c5cccnc5)cccc34)CC2)s1 | 
3 |  |  |  |  | 3470 | 270 |  |  | > 50100 | 228 |  |  |  |  |  |  |  |  | CC(CN1CCN(S(=O)(=O)c2ccc(Cl)c(Cl)c2)CC1)Nc1ncnc2c(-c3ccccc3)csc12 (racemic) | 
4 |  |  |  |  | 4170 | 698 |  |  | 12600 | 789 |  |  |  |  |  |  |  |  | Cc1cccc2c(NC(C)CN3CCN(S(=O)(=O)c4ccc(Cl)c(Cl)c4)CC3)ncnc12 (stereo in doubt; 42b) | 

More lines, now with the values behind:

Row | Structure (SMILES) | fraction unbound at 5 h, 0.5 µM [2] | fraction unbound at 5 h, 5 µM [3] | IC50 ([5]; read-out: pIC50 (converted)) [nM] | fraction unbound at 5 h, 0.5 µM [6] | IC50 [7] [nM] | microsomal CLint at 0.75 h, 0.5 µM [8] [µL/min/mg] | Papp A→B at 1 h, 10 µM [9] [×10⁻⁶ cm/s] | efflux ratio at 1 h, 10 µM [10] | IC50 [12] [nM] | microsomal CLint at 0.75 h, 0.5 µM [14] [µL/min/mg] | Papp B→A at 1 h, 10 µM [16] [×10⁻⁶ cm/s] | Cmax [18] [ng/mL] | bioavailability [19] [%] | Cmax [20] [ng/mL] | AUC(0-t) [21] [ng·h/mL] | half-life [22] [h] | AUC(0-t) [23] [ng·h/mL] | Fa [24] [%] | also measured
5 | COC(=O)Nc1nc(C)c(S(=O)(=O)N2CCN(C[C@H](C)Nc3ncnc4c(-c5c(C)noc5C)cccc34)CC2)s1 | 0.0043 | 0.0185 | 28.2 | < 0.01 | 0.759 | 94 | 1.47 | 6.3 | > 50100 | 89 | 9.29 | 15100 | 92 | 76200 | 25800 | 1.32 | 124000 | 96 | 
6 | COC(=O)Nc1nc(C)c(S(=O)(=O)N2CCN(C[C@H](C)Nc3ncnc4c(-c5cccc(CN6CCCC6)c5)cccc34)CC2)s1 | 0.0059 | 0.0187 | 4.57 | < 0.01 | 0.282 | 133 | 0.09 | 98.1 | > 50100 | 104 | 8.95 | 2680 | 7 | 4230 | 19500 | 2.45 | 12900 | 9 | 
7 | COC(=O)Nc1nc(C)c(S(=O)(=O)N2CCN(C[C@H](C)Nc3ncnc4c(-c5sc(C)nc5C)cccc34)CC2)s1 | 0.0372 | 0.022 | 6.92 | 0.0002 | 0.251 | 15 | 9.2 | 0.6 | > 501 | 15 | 5.39 | 19900 | 64 | 72300 | 56200 | 1.88 | 230000 | 76 | 
8 | COC(=O)Nc1nc(C)c(S(=O)(=O)N2CCN(C[C@H](C)Nc3ncnc4c(-c5ccc(F)c(CN(C)C)c5)cccc34)CC2)s1 |  |  |  |  |  |  |  |  | > 50100 |  |  |  |  |  |  |  |  |  | IC50 ([5]; read-out: IC50): 6.46 nM
9 | COC(=O)Nc1nc(C)c(S(=O)(=O)N2CCN(C[C@H](C)Nc3ncnc4c(C(=O)N(C)C)cccc34)CC2)s1 |  |  | 3980 |  |  |  |  |  |  |  |  |  |  |  |  |  |  |  | 
10 | COC(=O)Nc1nc(C)c(S(=O)(=O)N2CCN(C[C@H](C)Nc3ncnc4c(C)csc34)CC2)s1 | 0.0023 | 0.0385 |  | < 0.01 | 479 | 156 | 8.12 | 1.7 | > 50100 | 80 | 13.5 |  |  |  |  |  |  |  | IC50 [1]: 24000 nM; Kp [25]: 0.27; IC50 [4]: > 50100 nM; IC50 ([5]; read-out: IC50): 7080 nM; AUC(0-t) [26]: 435000 ng·h/mL; Cmax [27]: 91300 ng/mL; clearance [28]: 0.82 mL/min/kg; half-life [29]: 2.17 h; Cmax [30]: 25300 ng/mL; bioavailability [31]: 85%; Fa [32]: 91%; AUC(0-t) [33]: 119000 ng·h/mL
11 | COC(=O)Nc1nc(C)c(S(=O)(=O)N2CCN(C[C@H](C)Nc3ncnc4c(-c5cccc(CN(C)C)c5)cccc34)CC2)s1 | 0.0124 | 0.0177 | 4.79 | 0.0003 | 0.331 | 108 | 0.18 | 60 | > 50100 | 38 | 10.6 | 7030 | 16 | 12100 | 43200 | 2.6 | 34200 | 17 | 
12 | COC(=O)Nc1nc(C)c(S(=O)(=O)N2CCN(C[C@H](C)Nc3ncnc4c(-c5cn(C)nc5C(F)(F)F)cccc34)CC2)s1 | 0.0015 | 0.0122 | 2.04 | < 0.01 | 0.347 | 125 | 2.23 | 2.9 | > 50100 | 52 | 6.41 |  |  |  |  |  |  |  | bioavailability [34]: 89%; half-life [35]: 1.69 h; AUC(0-t) [36]: 418000 ng·h/mL; Cmax [37]: 70100 ng/mL; Fa [38]: 100%; Cmax [39]: 19000 ng/mL; AUC(0-t) [40]: 78000 ng·h/mL
13 | COC(=O)Nc1nc(C)c(S(=O)(=O)N2CCN(C[C@H](C)Nc3ncnc4c(-c5ccc(CN6CCCC6)cc5)cccc34)CC2)s1 |  |  | 17.4 |  |  |  |  |  |  |  |  |  |  |  |  |  |  |  | 
14 | COC(=O)Nc1nc(C)c(S(=O)(=O)N2CCN(C[C@H](C)Nc3ncnc4c(-c5cccnc5C)cccc34)CC2)s1 | 0.0616 | 0.0531 | 6.46 |  | 0.447 | 13 | 4.17 | 2.7 | > 50100 | 21 | 11.2 | 8450 | 67 | 81200 | 24300 | 1.74 | 163000 | 76 | 
